{
  "source": "patent US10004701B2",
  "about": "“Methods and compositions for treating infection” (UNIVERSITY OF ROCHESTER, priority 2012, dated 2018)",
  "assay_in_all_cases": "AK assay 384-well format, Prestwick library screening",
  "key": {"E. faecium": {"system": "E. faecium", "assay_type": "cell-based, Enterococcus faecium", "conditions": "50 μM final drug concentration; for fold induction at 50 µM: Enterococcus faecium, 3 h"}, "[1]": {"system": "S. aureus strain USA300-0114", "assay_type": "cell-based, Staphylococcus aureus", "conditions": "50 μM final drug concentration; for fold induction at 50 µM: Staphylococcus aureus, USA300, 3 h"}, "K. pneumoniae": {"system": "K. pneumoniae", "assay_type": "cell-based, Klebsiella pneumoniae", "conditions": "50 μM final drug concentration; for fold induction at 50 µM: Klebsiella pneumoniae, 3 h"}, "[2]": {"system": "A. baumannii strain 98-37-09", "assay_type": "cell-based, Acinetobacter baumannii", "conditions": "50 μM final drug concentration; for fold induction at 50 µM: Acinetobacter baumannii, 983709, 3 h"}, "P. aeruginosa": {"system": "P. aeruginosa", "assay_type": "cell-based, Pseudomonas aeruginosa", "conditions": "50 μM final drug concentration; for fold induction at 50 µM: Pseudomonas aeruginosa, 3 h"}, "E. cloacae": {"system": "E. cloacae", "assay_type": "cell-based, Enterobacter cloacae", "conditions": "50 μM final drug concentration; for fold induction at 50 µM: Enterobacter cloacae, 3 h"}, "E. coli": {"system": "E. coli", "assay_type": "cell-based, Escherichia coli", "conditions": "50 μM final drug concentration; for fold induction at 50 µM: Escherichia coli, 3 h"}},
  "note": "Where a name gives a salt, the structure may show the parent alone. Read-outs that look alike come from different tables or passages of the source.",
  "data": [
    {"compound": "C[C@]1(OC(=O)/C=C/c2ccccc2)C[C@@H](O)[C@]2(O)C=CO[C@@H](O[C@@H]3O[C@H](CO)[C@@H](O)[C@H](O)[C@H]3O)[C@@H]21", "note": "[Harpagoside]", "values": [
      {"measurement": "fold induction at 50 µM", "setting": "E. faecium; planktonic E. faecium, positive cutoff 3-fold increase, read-out: AK-based Prestwick library screening result, E. faecium (fold increase in extracellular AK activity)", "value": 0.9},
      {"measurement": "fold induction at 50 µM", "setting": "[1]; planktonic S. aureus, positive cutoff 3-fold increase, read-out: AK-based Prestwick library screening result, S. aureus (fold increase in extracellular AK activity)", "value": 0.8},
      {"measurement": "fold induction at 50 µM", "setting": "K. pneumoniae; planktonic K. pneumoniae, positive cutoff 3-fold increase, read-out: AK-based Prestwick library screening result, K. pneumoniae (fold increase in extracellular AK activity)", "value": 0.7},
      {"measurement": "fold induction at 50 µM", "setting": "[2]; planktonic A. baumannii, positive cutoff 3-fold increase, read-out: AK-based Prestwick library screening result, A. baumannii (fold increase in extracellular AK activity)", "value": 0.9},
      {"measurement": "fold induction at 50 µM", "setting": "P. aeruginosa; planktonic P. aeruginosa, positive cutoff 3-fold increase, read-out: AK-based Prestwick library screening result, P. aeruginosa (fold increase in extracellular AK activity)", "value": 0.8},
      {"measurement": "fold induction at 50 µM", "setting": "E. cloacae; planktonic E. cloacae, positive cutoff 3-fold increase, read-out: AK-based Prestwick library screening result, E. cloacae (fold increase in extracellular AK activity)", "value": 0.9},
      {"measurement": "fold induction at 50 µM", "setting": "E. coli; planktonic E. coli, positive cutoff 3-fold increase, read-out: AK-based Prestwick library screening result, E. coli (fold increase in extracellular AK activity)", "value": 0.8}
    ]},
    {"compound": "CO[C@H](C)[C@](O)(C(=O)OCC1=CCN2CC[C@H](O)[C@@H]12)C(C)C", "note": "[Heliotrine]", "values": [
      {"measurement": "fold induction at 50 µM", "setting": "E. faecium; planktonic, […], read-out: AK-based Prestwick Library Screening Results, E. faecium (fold increase in extracellular AK activity)", "value": 1},
      {"measurement": "fold induction at 50 µM", "setting": "[1]; planktonic, […], read-out: AK-based Prestwick Library Screening Results, S. aureus (fold increase in extracellular AK activity)", "value": 1.4},
      {"measurement": "fold induction at 50 µM", "setting": "K. pneumoniae; planktonic, […], read-out: AK-based Prestwick Library Screening Results, K. pneumoniae (fold increase in extracellular AK activity)", "value": 1},
      {"measurement": "fold induction at 50 µM", "setting": "[2]; planktonic, […], read-out: AK-based Prestwick Library Screening Results, A. baumannii (fold increase in extracellular AK activity)", "value": 1},
      {"measurement": "fold induction at 50 µM", "setting": "P. aeruginosa; planktonic, […], read-out: AK-based Prestwick Library Screening Results, P. aeruginosa (fold increase in extracellular AK activity)", "value": 1},
      {"measurement": "fold induction at 50 µM", "setting": "E. cloacae; planktonic, […], read-out: AK-based Prestwick Library Screening Results, E. cloacae (fold increase in extracellular AK activity)", "value": 1.7},
      {"measurement": "fold induction at 50 µM", "setting": "E. coli; planktonic, […], read-out: AK-based Prestwick Library Screening Results, E. coli (fold increase in extracellular AK activity)", "value": 1.2}
    ]},
    {"compound": "C[C@H]1O[C@@H](O[C@H]2CC[C@]3(C=O)[C@H]4CC[C@]5(C)[C@@H](C6=CC(=O)OC6)CC[C@]5(O)[C@@H]4CC[C@]3(O)C2)C[C@H](O)[C@@H]1O", "note": "[Helveticoside]", "values": [
      {"measurement": "AK-based Prestwick Library Screening Results, E. faecium (fold increase in extracellular AK activity)", "setting": "E. faecium; planktonic, […]", "value": 0.9},
      {"measurement": "AK-based Prestwick Library Screening Results, S. aureus (fold increase in extracellular AK activity)", "setting": "[1]; planktonic, […]", "value": 0.4},
      {"measurement": "AK-based Prestwick Library Screening Results, K. pneumoniae (fold increase in extracellular AK activity)", "setting": "K. pneumoniae; planktonic, […]", "value": 0.5},
      {"measurement": "AK-based Prestwick Library Screening Results, A. baumannii (fold increase in extracellular AK activity)", "setting": "[2]; planktonic, […]", "value": 0.4},
      {"measurement": "AK-based Prestwick Library Screening Results, P. aeruginosa (fold increase in extracellular AK activity)", "setting": "P. aeruginosa; planktonic, […]", "value": 0.4},
      {"measurement": "AK-based Prestwick Library Screening Results, E. cloacae (fold increase in extracellular AK activity)", "setting": "E. cloacae; planktonic, […]", "value": 0.4},
      {"measurement": "AK-based Prestwick Library Screening Results, E. coli (fold increase in extracellular AK activity)", "setting": "E. coli; planktonic, […]", "value": 0.5}
    ]},
    {"compound": "C[N+]1(C)CCOC(O)(c2ccc(-c3ccc(C4(O)C[N+](C)(C)CCO4)cc3)cc2)C1.[Br-].[Br-]", "note": "(centres unmarked) [Hemicholinium bromide]", "values": [
      {"measurement": "AK-based Prestwick Library Screening Results, E. faecium (fold increase in extracellular AK activity)", "setting": "E. faecium; planktonic, […]", "value": 0.9},
      {"measurement": "AK-based Prestwick Library Screening Results, S. aureus (fold increase in extracellular AK activity)", "setting": "[1]; planktonic, […]", "value": 1.0},
      {"measurement": "AK-based Prestwick Library Screening Results, K. pneumoniae (fold increase in extracellular AK activity)", "setting": "K. pneumoniae; planktonic, […]", "value": 1.0},
      {"measurement": "AK-based Prestwick Library Screening Results, A. baumannii (fold increase in extracellular AK activity)", "setting": "[2]; planktonic, […]", "value": 1.2},
      {"measurement": "AK-based Prestwick Library Screening Results, P. aeruginosa (fold increase in extracellular AK activity)", "setting": "P. aeruginosa; planktonic, […]", "value": 0.9},
      {"measurement": "AK-based Prestwick Library Screening Results, E. cloacae (fold increase in extracellular AK activity)", "setting": "E. cloacae; planktonic, […]", "value": 2.0},
      {"measurement": "AK-based Prestwick Library Screening Results, E. coli (fold increase in extracellular AK activity)", "setting": "E. coli; planktonic, […]", "value": 1.1}
    ]},
    {"compound": "CC(N)CCCC(C)(C)O", "note": "(centres unmarked) [Heptaminol hydrochloride]", "values": [
      {"measurement": "fold induction at 50 µM", "setting": "E. faecium; 384-well format, cutoff for positive-scoring molecules 3-fold increase, read-out: AK-based Prestwick Library Screening Results, E. faecium (increase in extracellular AK activity)", "value": 0.9},
      {"measurement": "fold induction at 50 µM", "setting": "[1]; 384-well format, cutoff for positive-scoring molecules 3-fold increase, read-out: AK-based Prestwick Library Screening Results, S. aureus (increase in extracellular AK activity)", "value": 0.7},
      {"measurement": "fold induction at 50 µM", "setting": "K. pneumoniae; 384-well format, cutoff for positive-scoring molecules 3-fold increase, read-out: AK-based Prestwick Library Screening Results, K. pneumoniae (increase in extracellular AK activity)", "value": 0.5},
      {"measurement": "fold induction at 50 µM", "setting": "[2]; 384-well format, cutoff for positive-scoring molecules 3-fold increase, read-out: AK-based Prestwick Library Screening Results, A. baumannii (increase in extracellular AK activity)", "value": 0.6},
      {"measurement": "fold induction at 50 µM", "setting": "P. aeruginosa; 384-well format, cutoff for positive-scoring molecules 3-fold increase, read-out: AK-based Prestwick Library Screening Results, P. aeruginosa (increase in extracellular AK activity)", "value": 0.5},
      {"measurement": "fold induction at 50 µM", "setting": "E. cloacae; 384-well format, cutoff for positive-scoring molecules 3-fold increase, read-out: AK-based Prestwick Library Screening Results, E. cloacae (increase in extracellular AK activity)", "value": 0.7},
      {"measurement": "fold induction at 50 µM", "setting": "E. coli; 384-well format, cutoff for positive-scoring molecules 3-fold increase, read-out: AK-based Prestwick Library Screening Results, E. coli (increase in extracellular AK activity)", "value": 0.8}
    ]}
  ]
}
